Converted amounts (≈) assume the structure as drawn.
Experiments:
[1] = tested on: L. pneumophila serogroup 1; test: microbe, parasite or virus in culture; type: cell-based, Legionella pneumophila; conditions: Legionella pneumophila; for MIC: 48 h, read-out: MIC Range; for MIC90: L. pneumophila serogroup 1 (n = 85)
[2] = tested on: L. pneumophila serogroup 2; test: microbe, parasite or virus in culture; type: cell-based; conditions: Legionella pneumophila; for MIC: 48 h, read-out: MIC Range
[3] = tested on: L. pneumophila serogroup 3; test: microbe, parasite or virus in culture; type: cell-based; conditions: Legionella pneumophila; for MIC: 48 h, read-out: MIC Range
[4] = tested on: L. pneumophila serogroup 4; test: microbe, parasite or virus in culture; type: cell-based; conditions: Legionella pneumophila; for MIC: 48 h, read-out: MIC Range
[5] = tested on: L. pneumophila serogroup 5; test: microbe, parasite or virus in culture; type: cell-based; conditions: Legionella pneumophila; for MIC: 48 h, read-out: MIC Range
[6] = tested on: L. pneumophila serogroup 6; test: microbe, parasite or virus in culture; type: cell-based; conditions: Legionella pneumophila; for MIC: 48 h, read-out: MIC Range
[7] = tested on: L. pneumophila serogroup 7; test: microbe, parasite or virus in culture; type: cell-based; conditions: Legionella pneumophila; for MIC: 48 h, read-out: MIC Range
[8] = tested on: L. pneumophila serogroup 8, 9; test: microbe, parasite or virus in culture; type: cell-based; conditions: Legionella pneumophila; for MIC: 48 h, read-out: MIC Range
L. dumoffii = test: organism not typed; type: cell-based; conditions: for MIC: 48 h, read-out: MIC Range
L. micadadei = test: organism not typed; type: cell-based, L. micdadei; conditions: for MIC: 48 h, read-out: MIC Range
L. longbeacheae = test: organism not typed; type: cell-based; conditions: for MIC: 48 h, read-out: MIC Range
Other Legionella spp. = test: microbe, parasite or virus in culture; type: cell-based; conditions: for MIC: 48 h, read-out: MIC Range
[9] = tested on: Erythromycin-susceptible L. pneumophila; type: cell-based, Legionella pneumophila; conditions: Erythromycin-susceptible L. pneumophila (n = 15); 4 × MIC; mean ± SD
[10] = tested on: Erythromycin-susceptible Legionella spp. other than L. pneumophila; type: cell-based; conditions: Erythromycin-susceptible Legionella spp. (n = 13); 4 × MIC; mean ± SD

Compound | MIC50 [1] [mg/L] | MIC [1] [mg/L] | MIC90 [1] [mg/L] | MIC50 [2] [mg/L] | MIC90 [2] [mg/L] | MIC [2] [mg/L] | MIC50 [3] [mg/L] | MIC90 [3] [mg/L] | MIC [3] [mg/L] | MIC50 [4] [mg/L] | MIC90 [4] [mg/L] | MIC [4] [mg/L] | MIC50 [5] [mg/L] | MIC90 [5] [mg/L] | MIC [5] [mg/L] | MIC50 [6] [mg/L] | MIC90 [6] [mg/L] | MIC [6] [mg/L] | MIC50 [7] [mg/L] | MIC90 [7] [mg/L] | other results
CC[C@H]1OC(=O)[C@H](C)[C@@H](O[C@H]2C[C@@](C)(OC)[C@@H](O)[C@H](C)O2)[C@H](C)[C@@H](O[C@@H]2O[C@H](C)C[C@H](N(C)C)[C@H]2O)[C@](C)(O)C[C@@H](C)C(=O)[C@H](C)[C@@H](O)[C@]1(C)O [Erythromycin] | 0.25 (≈ 0.341 µM) | 0.03 to 1 (≈ 0.0409 to 1.36 µM) | 1 (≈ 1.36 µM) | 0.25 (≈ 0.341 µM) | 0.25 (≈ 0.341 µM) | 0.008 to 0.5 (≈ 0.0109 to 0.681 µM) | 0.25 (≈ 0.341 µM) | 0.5 (≈ 0.681 µM) | 0.06 to 0.5 (≈ 0.0818 to 0.681 µM) | 0.5 (≈ 0.681 µM) | 0.5 (≈ 0.681 µM) | 0.016 to 0.5 (≈ 0.0218 to 0.681 µM) | 0.25 (≈ 0.341 µM) | 0.5 (≈ 0.681 µM) | 0.06 to 1 (≈ 0.0818 to 1.36 µM) | 0.12 (≈ 0.164 µM) | 0.25 (≈ 0.341 µM) | 0.008 to 0.25 (≈ 0.0109 to 0.341 µM) | 0.12 (≈ 0.164 µM) | 0.5 (≈ 0.681 µM) | MIC [7]: 0.12 to 0.5 mg/L (≈ 0.164 to 0.681 µM); MIC50 [8]: 0.25 mg/L (≈ 0.341 µM); MIC90 [8]: 0.25 mg/L (≈ 0.341 µM); MIC [8]: 0.25 mg/L (≈ 0.341 µM); MIC50 (L. dumoffii): 0.25 mg/L (≈ 0.341 µM); MIC90 (L. dumoffii): 0.5 mg/L (≈ 0.681 µM); MIC (L. dumoffii): 0.25 to 0.5 mg/L (≈ 0.341 to 0.681 µM); MIC50 (L. micadadei): 0.5 mg/L (≈ 0.681 µM); MIC90 (L. micadadei): 1 mg/L (≈ 1.36 µM); MIC (L. micadadei): 0.25 to 1 mg/L (≈ 0.341 to 1.36 µM); MIC50 (L. longbeacheae): 0.25 mg/L (≈ 0.341 µM); MIC90 (L. longbeacheae): 0.5 mg/L (≈ 0.681 µM); MIC (L. longbeacheae): 0.008 to 0.5 mg/L (≈ 0.0109 to 0.681 µM); MIC50 (Other Legionella spp.): 0.5 mg/L (≈ 0.681 µM); MIC90 (Other Legionella spp.): 1 mg/L (≈ 1.36 µM); MIC (Other Legionella spp.): 0.016 to 1 mg/L (≈ 0.0218 to 1.36 µM); Mean PAE [9]: 0.93 ± 1 h; Mean PAE [10]: 2.06 ± 2 h
CC[C@H]1OC(=O)[C@H](C)[C@@H](O[C@H]2C[C@@](C)(OC)[C@@H](O)[C@H](C)O2)[C@H](C)[C@@H](O[C@@H]2O[C@H](C)C[C@H](N(C)C)[C@H]2O)[C@](C)(O)C[C@@H](C)CN(C)[C@H](C)[C@@H](O)[C@]1(C)O [Azithromycin] | 0.06 (≈ 0.0801 µM) | 0.008 to 1 (≈ 0.0107 to 1.34 µM) | 0.5 (≈ 0.668 µM) | 0.06 (≈ 0.0801 µM) | 0.12 (≈ 0.16 µM) | 0.008 to 0.12 (≈ 0.0107 to 0.16 µM) | 0.12 (≈ 0.16 µM) | 0.25 (≈ 0.334 µM) | 0.016 to 0.25 (≈ 0.0214 to 0.334 µM) | 0.12 (≈ 0.16 µM) | 0.12 (≈ 0.16 µM) | 0.008 to 0.25 (≈ 0.0107 to 0.334 µM) | 0.03 (≈ 0.0401 µM) | 0.25 (≈ 0.334 µM) | 0.008 to 0.5 (≈ 0.0107 to 0.668 µM) | 0.06 (≈ 0.0801 µM) | 0.12 (≈ 0.16 µM) | 0.016 to 0.25 (≈ 0.0214 to 0.334 µM) | 0.06 (≈ 0.0801 µM) | 0.06 (≈ 0.0801 µM) | MIC [7]: 0.06 mg/L (≈ 0.0801 µM); MIC50 [8]: 0.06 mg/L (≈ 0.0801 µM); MIC90 [8]: 0.06 mg/L (≈ 0.0801 µM); MIC [8]: 0.06 mg/L (≈ 0.0801 µM); MIC50 (L. dumoffii): 0.12 mg/L (≈ 0.16 µM); MIC90 (L. dumoffii): 0.25 mg/L (≈ 0.334 µM); MIC (L. dumoffii): 0.12 to 0.25 mg/L (≈ 0.16 to 0.334 µM); MIC50 (L. micadadei): 0.25 mg/L (≈ 0.334 µM); MIC90 (L. micadadei): 0.25 mg/L (≈ 0.334 µM); MIC (L. micadadei): 0.016 to 0.25 mg/L (≈ 0.0214 to 0.334 µM); MIC50 (L. longbeacheae): 0.12 mg/L (≈ 0.16 µM); MIC90 (L. longbeacheae): 0.25 mg/L (≈ 0.334 µM); MIC (L. longbeacheae): 0.016 to 0.25 mg/L (≈ 0.0214 to 0.334 µM); MIC50 (Other Legionella spp.): 0.12 mg/L (≈ 0.16 µM); MIC90 (Other Legionella spp.): 0.5 mg/L (≈ 0.668 µM); MIC (Other Legionella spp.): 0.016 to 0.5 mg/L (≈ 0.0214 to 0.668 µM); Mean PAE [9]: 2.91 ± 3 h; Mean PAE [10]: 1.86 ± 2 h

Reference: patent US6340689B1 (priority 1999, dated 2002)
